Assay results published in patent US11033539B2, “Compounds of formulas (VII), (VIII), (IX), (XI), (XII), (XIII), and (XIV) as muscarinic receptor 4(M4) antagonists for treating neurological diseases” (Neurocrine Biosciences, Inc., priority 2015, dated 2021).

Tests used:
human M1 receptor = human M1 receptor (Homo sapiens (Human), UniProt P11229); assay: Radioligand (tritiated N-methylscopolamine) binding assay, M1; conditions: CHO cell membranes expressing human M1; 1.5 nM tritiated N-methylscopolamine; 90 min, 37° C.; read-out: Ki against M1 receptor (Table 21, M1)
Experimental: (§1) Binding affinity (Ki) of compounds was measured by inhibition of radioligand binding to membranes from CHO cells expressing human M1, M2, M3, M4 and M5 receptors. Membranes were prepared by nitrogen cavitation and differential centrifugation as previously described (Hoare et al., Mol. Pharmacol. 2003 March; 63(3): 751-65). The radioligand employed was tritiated N-methylscopolamine, used at a concentration of 1.5 nM. A dose-response of twelve concentrations of compound was used, ranging from 10 μM to […]. The assay buffer was 50 mM HEPES, 100 mM NaCl, 5 mM MgCl2, 1 mM ethylenediaminetetraacetic acid, pH-adjusted to pH 7.4. Membranes, radioligand and compound were incubated together for 90 minutes at 37° C., in a total volume of 150 μl in a 96-well plate. Receptor-bound radioligand was then collected by harvesting the assay over glass fiber filters pretreated with polyethylenimine to trap the cell membranes, using rapid vacuum filtration. Harvesting and radioactivity counting was conducted as previously described (see, e.g., Hoare et al., Mol. Pharmacol. 2003 63(3):751-65); Erratum at Mol. Pharmacol. 2005 July; 68(1): 260).

human M2 receptor = human M2 receptor (Homo sapiens (Human), UniProt P08172); assay: Radioligand (tritiated N-methylscopolamine) binding assay, M2; conditions: CHO cell membranes expressing human M2; 1.5 nM tritiated N-methylscopolamine; 90 min, 37° C.; read-out: Ki against M2 receptor (Table 21, M2)
Experimental: as §1

human M3 receptor = human M3 receptor (Homo sapiens (Human), UniProt P20309); assay: Radioligand (tritiated N-methylscopolamine) binding assay, M3; conditions: CHO cell membranes expressing human M3; 1.5 nM tritiated N-methylscopolamine; 90 min, 37° C.; read-out: Ki against M3 receptor (Table 21, M3)
Experimental: as §1

human M4 receptor = human M4 receptor (Homo sapiens (Human), UniProt P08173); assay: Radioligand (tritiated N-methylscopolamine) binding assay, M4; conditions: Ki against the M4 receptor; membranes from CHO cells expressing human M4; tritiated N-methylscopolamine 1.5 nM; read-out: Ki
Outline: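 Membranes came from recombinant CHO cells expressing human muscarinic subtypes and were incubated with compound and [3H]NMS (1.5 nM) in HEPES/NaCl/MgCl2/EDTA buffer, pH 7.4, at 37° C for 90 min. Twelve-point dose-response (printed 10–[…]). Filter-bound radioactivity was counted and Ki values derived.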

human M5 receptor = human M5 receptor (Homo sapiens (Human), UniProt P08912); assay: Radioligand (tritiated N-methylscopolamine) binding assay, M5; conditions: CHO cell membranes expressing human M5; 1.5 nM tritiated N-methylscopolamine; 90 min, 37° C.; read-out: Ki against M5 receptor (Table 21, M5)
Experimental: as §1

Chain of human M4 receptor (P08173 whole entry): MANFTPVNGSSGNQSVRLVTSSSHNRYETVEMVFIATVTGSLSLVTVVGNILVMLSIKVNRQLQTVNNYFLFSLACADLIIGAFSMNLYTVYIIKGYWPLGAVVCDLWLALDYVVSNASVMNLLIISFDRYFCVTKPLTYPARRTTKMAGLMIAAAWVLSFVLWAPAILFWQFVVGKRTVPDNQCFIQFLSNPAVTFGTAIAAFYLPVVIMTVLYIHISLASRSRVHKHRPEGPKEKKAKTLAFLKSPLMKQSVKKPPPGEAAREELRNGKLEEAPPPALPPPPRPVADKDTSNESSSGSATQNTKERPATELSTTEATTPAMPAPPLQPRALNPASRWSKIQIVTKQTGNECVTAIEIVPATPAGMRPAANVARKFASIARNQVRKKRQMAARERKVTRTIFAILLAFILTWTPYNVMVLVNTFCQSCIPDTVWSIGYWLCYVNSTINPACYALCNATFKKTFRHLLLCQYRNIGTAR
Chain of human M3 receptor (P20309 whole entry): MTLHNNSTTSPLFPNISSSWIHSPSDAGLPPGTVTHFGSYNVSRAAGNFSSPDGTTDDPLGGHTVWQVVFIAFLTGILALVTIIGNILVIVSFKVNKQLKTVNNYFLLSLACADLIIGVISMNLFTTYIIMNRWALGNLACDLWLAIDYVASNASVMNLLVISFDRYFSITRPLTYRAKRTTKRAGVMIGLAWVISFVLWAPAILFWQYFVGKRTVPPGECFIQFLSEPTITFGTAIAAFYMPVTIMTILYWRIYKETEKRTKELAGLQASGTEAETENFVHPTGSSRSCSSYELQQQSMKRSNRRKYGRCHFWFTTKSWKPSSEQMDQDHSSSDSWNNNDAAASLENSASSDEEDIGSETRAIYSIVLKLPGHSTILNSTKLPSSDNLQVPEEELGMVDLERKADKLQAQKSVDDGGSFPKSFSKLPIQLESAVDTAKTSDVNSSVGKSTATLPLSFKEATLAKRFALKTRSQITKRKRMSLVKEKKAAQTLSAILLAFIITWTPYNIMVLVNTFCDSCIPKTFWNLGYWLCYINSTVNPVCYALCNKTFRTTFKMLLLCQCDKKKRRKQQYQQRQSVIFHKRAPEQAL
Chain of human M5 receptor (P08912 whole entry): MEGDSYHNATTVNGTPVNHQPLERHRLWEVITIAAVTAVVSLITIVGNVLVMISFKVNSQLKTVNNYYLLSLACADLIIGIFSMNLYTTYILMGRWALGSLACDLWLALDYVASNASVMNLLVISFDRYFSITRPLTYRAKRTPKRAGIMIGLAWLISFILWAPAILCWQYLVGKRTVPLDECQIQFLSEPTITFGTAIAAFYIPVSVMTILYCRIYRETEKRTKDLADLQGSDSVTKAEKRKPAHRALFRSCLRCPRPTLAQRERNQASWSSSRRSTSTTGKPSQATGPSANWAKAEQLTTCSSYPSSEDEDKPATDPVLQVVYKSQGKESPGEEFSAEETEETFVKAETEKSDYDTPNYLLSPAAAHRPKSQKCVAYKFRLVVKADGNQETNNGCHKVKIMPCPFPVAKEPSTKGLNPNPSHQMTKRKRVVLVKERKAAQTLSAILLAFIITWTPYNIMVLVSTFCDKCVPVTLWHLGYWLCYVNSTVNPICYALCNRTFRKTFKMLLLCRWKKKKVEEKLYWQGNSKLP
Chain of human M2 receptor (P08172 whole entry): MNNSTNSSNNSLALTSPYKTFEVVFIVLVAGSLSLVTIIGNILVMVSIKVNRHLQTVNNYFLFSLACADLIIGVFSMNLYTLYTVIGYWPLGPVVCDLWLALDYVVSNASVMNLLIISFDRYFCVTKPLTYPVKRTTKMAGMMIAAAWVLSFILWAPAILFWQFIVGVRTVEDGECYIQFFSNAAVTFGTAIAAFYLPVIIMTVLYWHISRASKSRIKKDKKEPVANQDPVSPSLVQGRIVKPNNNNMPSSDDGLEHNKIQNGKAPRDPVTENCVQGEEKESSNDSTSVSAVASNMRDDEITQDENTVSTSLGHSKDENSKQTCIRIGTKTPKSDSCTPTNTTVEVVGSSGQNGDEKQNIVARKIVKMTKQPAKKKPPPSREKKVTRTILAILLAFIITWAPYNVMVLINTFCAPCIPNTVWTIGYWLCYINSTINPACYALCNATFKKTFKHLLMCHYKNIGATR
Chain of human M1 receptor (P11229 whole entry): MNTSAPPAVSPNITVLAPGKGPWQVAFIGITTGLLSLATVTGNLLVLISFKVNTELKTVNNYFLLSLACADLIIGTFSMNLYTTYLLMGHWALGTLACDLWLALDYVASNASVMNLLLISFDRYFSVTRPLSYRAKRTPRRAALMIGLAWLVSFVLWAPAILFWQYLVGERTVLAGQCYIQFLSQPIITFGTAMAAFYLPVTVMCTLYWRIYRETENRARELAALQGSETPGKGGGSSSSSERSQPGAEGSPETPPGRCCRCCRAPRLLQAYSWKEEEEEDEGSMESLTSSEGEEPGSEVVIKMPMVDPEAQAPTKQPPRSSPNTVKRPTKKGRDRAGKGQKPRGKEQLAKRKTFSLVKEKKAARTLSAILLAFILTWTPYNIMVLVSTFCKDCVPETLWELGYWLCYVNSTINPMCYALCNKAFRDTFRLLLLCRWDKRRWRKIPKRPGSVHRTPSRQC

Compound | Ki (human M1 receptor) | Ki (human M2 receptor) | Ki (human M3 receptor) | Ki (human M4 receptor) | Ki (human M5 receptor)
C[C@@H]1CN(c2cc(C(F)(F)F)ccn2)CCN1C(=O)NCCC1CCN(Cc2ccccc2)CC1 [4-12, (2R)-N-[2-(1-benzylpiperidin-4-yl)ethyl]-2-methyl-4-[4-(trifluoromethyl)pyridin-2-yl]piperazine-1-carboxamide] | 100 to 1000 nM | 10 to 100 nM | 100 to 1000 nM | < 10 nM | > 1000 nM
O=C(NCCC1(CO)CCN(Cc2ccccc2)CC1)C1CCN(c2ccc(OC(F)(F)F)c(F)c2)CC1 [9-64, N-{2-[1-benzyl-4-(hydroxymethyl)piperidin-4-yl]ethyl}-1-[3-fluoro-4-(trifluoromethoxy)phenyl]piperidine-4-carboxamide] | 100 to 1000 nM | 100 to 1000 nM | > 1000 nM | < 10 nM | > 1000 nM
C[C@@H]1CN(c2cnc(C#N)nc2)CCN1C(=O)NCCC1CCN(Cc2ccccc2)CC1 [4-80, (2R)-N-[2-(1-benzylpiperidin-4-yl)ethyl]-4-(2-cyanopyrimidin-5-yl)-2-methylpiperazine-1-carboxamide] | 100 to 1000 nM | 100 to 1000 nM | > 1000 nM | < 10 nM | > 1000 nM
O=C(NCCC1CCN(Cc2ccccc2)CC1)N1CCN(c2ccc(C(F)(F)F)cn2)CC1 [4-77, N-[2-(1-benzylpiperidin-4-yl)ethyl]-4-[5-(trifluoromethyl)pyridin-2-yl]piperazine-1-carboxamide] | 100 to 1000 nM | 10 to 100 nM | > 1000 nM | < 10 nM | > 1000 nM
C[C@@H]1CN(c2ncc(C(F)(F)F)cn2)CCN1C(=O)NCCC1CCN(Cc2cccc(C#N)c2)CC1 [6-40, (2R)-N-(2-{1-[(3-cyanophenyl)methyl]piperidin-4-yl}ethyl)-2-methyl-4-[5-(trifluoromethyl)pyrimidin-2-yl]piperazine-1-carboxamide] | 100 to 1000 nM | 10 to 100 nM | 100 to 1000 nM | < 10 nM | > 1000 nM
C[C@@H]1CN(c2ncc(C(F)(F)F)c(N)n2)CCN1C(=O)NCCC1CCN(Cc2ccccc2)CC1 [5-29, (2R)-4-[4-amino-5-(trifluoromethyl)pyrimidin-2-yl]-N-[2-(1-benzylpiperidin-4-yl)ethyl]-2-methylpiperazine-1-carboxamide] | > 1000 nM | 100 to 1000 nM | > 1000 nM | < 10 nM | > 1000 nM
C[C@@H]1CN(c2ccc(OC(F)(F)F)nc2)CCN1C(=O)NCCC1CCN(Cc2ccccc2)CC1 [3-8, (2R)-N-[2-(1-benzylpiperidin-4-yl)ethyl]-2-methyl-4-[6-(trifluoromethoxy)pyridin-3-yl]piperazine-1-carboxamide] | 100 to 1000 nM | 10 to 100 nM | 100 to 1000 nM | < 10 nM | > 1000 nM
C[C@@H]1CN(c2ccc(F)c(C(F)F)c2)CCN1C(=O)NCCC1CCN(Cc2ccccc2)CC1 [7-9, (2R)-N-[2-(1-benzylpiperidin-4-yl)ethyl]-4-[3-(difluoromethyl)-4-fluorophenyl]-2-methylpiperazine-1-carboxamide] | 100 to 1000 nM | 100 to 1000 nM | > 1000 nM | < 10 nM | > 1000 nM
C[C@@H]1CN(c2ncc(C#N)cn2)C[C@H](C)N1C(=O)NCCC1CCN(Cc2ccc(O)cc2)CC1 [6-42, (2R,6S)-4-(5-cyanopyrimidin-2-yl)-N-(2-{1-[(4-hydroxyphenyl)-methyl]piperidin-4-yl}ethyl)-2,6-dimethylpiperazine-1-carboxamide] | > 1000 nM | 10 to 100 nM | 100 to 1000 nM | < 10 nM | > 1000 nM
O=C(NCC(O)C1CCN(Cc2ccccc2)CC1)C1CCN(c2ccc(OC(F)(F)F)cc2)CC1 (stereo not shown) [9-8, N-[2-(1-benzylpiperidin-4-yl)-2-hydroxyethyl]-1-[4-(trifluoromethoxy)phenyl]piperidine-4-carboxamide] | > 1000 nM | 100 to 1000 nM | > 1000 nM | < 10 nM | > 1000 nM

Other lines, results leading:

Ki (human M1 receptor) | Ki (human M2 receptor) | Ki (human M3 receptor) | Ki (human M4 receptor) | Ki (human M5 receptor) | Compound
100 to 1000 nM | 10 to 100 nM | > 1000 nM | < 10 nM | 100 to 1000 nM | C[C@@H]1CN(c2ncc(F)cc2F)C[C@H](C)N1C(=O)NCCC1CCN(Cc2ccccc2)CC1 [22-5, (2R,6S)-N-[2-(1-benzylpiperidin-4-yl)ethyl]-4-(3,5-difluoropyridin-2-y1)-2,6-dimethylpiperazine-1-carboxamide]
> 1000 nM | 100 to 1000 nM | > 1000 nM | < 10 nM | > 1000 nM | CC1CN(c2cccc(OC(F)(F)F)c2)CCC1C(=O)NCCC1CCN(Cc2ccccc2)CC1 (stereo not shown) [10-18, N-[2-(1-benzylpiperidin-4-yl)ethyl]-3-methyl-1-[3-(trifluoromethoxy)phenyl]piperidine-4-carboxamide]
> 1000 nM | > 1000 nM | > 1000 nM | < 10 nM | > 1000 nM | N#Cc1cc(N2CCC(C(=O)NC[C@@H](O)C3CCN(Cc4ccccc4)CC3)CC2)ccc1F [10-58, N-[(2S)-2-(1-benzylpiperidin-4-yl)-2-hydroxyethyl]-1-(3-cyano-4-fluorophenyl)piperidine-4-carboxamide]
> 1000 nM | 100 to 1000 nM | > 1000 nM | < 10 nM | > 1000 nM | C[C@@H]1CN(c2ccc(C#N)cc2)C[C@H](C)N1C(=O)NCCC1CCN(Cc2ccccc2)CC1 [22-2]
100 to 1000 nM | 10 to 100 nM | > 1000 nM | < 10 nM | > 1000 nM | Cc1c(C(=O)NC[C@@H](O)C2CCN(Cc3ccccc3)CC2)cnc2cc(-c3cccc(C(F)(F)F)c3)nn12 [17-5, N-[(2S)-2-(1-benzylpiperidin-4-yl)-2-hydroxyethyl]-7-methyl-2-[3-(trifluoromethyl)phenyl]pyrazolo[1,5-a]pyrimidine-6-carboxamide]
100 to 1000 nM | 100 to 1000 nM | > 1000 nM | < 10 nM | > 1000 nM | COc1cc(N2CCC(C(=O)NCCC3CCN(Cc4ccccc4)CC3)CC2)ccc1OC(F)(F)F [10-10, N-[2-(1-benzylpiperidin-4-yl)ethyl]-1-[3-methoxy-4-(trifluoromethoxy)phenyl]piperidine-4-carboxamide]
100 to 1000 nM | 10 to 100 nM | 100 to 1000 nM | < 10 nM | 100 to 1000 nM | C[C@@H]1CN(c2ccc(Cl)c(F)c2)CCN1C(=O)NCCC1CCN(Cc2ccccc2)CC1 [22-14]
100 to 1000 nM | 10 to 100 nM | > 1000 nM | < 10 nM | > 1000 nM | N#Cc1cc(OC(F)(F)F)cc(N2CCC(C(=O)NCCC3CCN(Cc4ccccc4)CC3)CC2)c1 [10-23, N-[2-(1-benzylpiperidin-4-yl)ethyl]-1-[3-cyano-5-(trifluoromethoxy)phenyl]piperidine-4-carboxamide]
100 to 1000 nM | 10 to 100 nM | > 1000 nM | < 10 nM | > 1000 nM | C[C@@H]1CN(c2cc(F)nc(F)c2)CCN1C(=O)NCCC1CCN(Cc2ccccc2)CC1 [22-30]
> 1000 nM | 100 to 1000 nM | > 1000 nM | < 10 nM | > 1000 nM | O=C(NCCC1CCN(Cc2ccccc2)CC1)C1CCN(c2ccc(OC(F)(F)F)c(F)c2)CC1 [10-8, N-[2-(1-benzylpiperidin-4-yl)ethyl]-1-[3-fluoro-4-(trifluoromethoxy)phenyl]piperidine-4-carboxamide]
100 to 1000 nM | 10 to 100 nM | > 1000 nM | < 10 nM | > 1000 nM | C[C@@H]1CN(c2cnc(C(F)(F)F)cn2)CCN1C(=O)NCCC1CCN(Cc2ccccc2)CC1 [22-22]
> 1000 nM | 100 to 1000 nM | > 1000 nM | < 10 nM | > 1000 nM | N#Cc1cc(N2CCC(C(=O)NCCC3(O)CCN(Cc4ccccc4)CC3)CC2)ccc1OC(F)(F)F [10-20, N-[2-(1-benzyl-4-hydroxypiperidin-4-yl)ethyl]-1-[3-cyano-4-(trifluoromethoxy)phenyl]piperidine-4-carboxamide]
100 to 1000 nM | 100 to 1000 nM | > 1000 nM | < 10 nM | 100 to 1000 nM | COc1cc(N2CCN(C(=O)NCCC3CCN(Cc4ccccc4)CC3)[C@H](C)C2)cc(F)c1C#N [22-32]
